Source: PubChem BioAssay (NCI)
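Five concentrations, 48 hours, 96-well plates. TGI: total growth inhibition.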

What was measured:
Test in all cases: NCI tumour cell line growth inhibition, 48 h
ACHN renal = system: ACHN renal
COLO 205 colon = system: COLO 205 colon
DU-145 prostate = system: DU-145 prostate
HCT-116 colon = system: HCT-116 colon
HCT-15 colon = system: HCT-15 colon
M14 melanoma = system: M14 melanoma
MDA-MB-435 = system: MDA-MB-435
MOLT-4 leukemia = system: MOLT-4 leukemia
NCI-H23 lung = system: NCI-H23 lung
NCI-H460 lung = system: NCI-H460 lung
OVCAR-4 ovarian = system: OVCAR-4 ovarian
SF-295 CNS = system: SF-295 CNS
SK-MEL-5 melanoma = system: SK-MEL-5 melanoma
UACC-62 melanoma = system: UACC-62 melanoma
A549 NSCLC = system: A549 NSCLC
HT29 colon = system: HT29 colon
NCI-H226 lung = system: NCI-H226 lung
OVCAR-3 ovarian = system: OVCAR-3 ovarian
OVCAR-8 ovarian = system: OVCAR-8 ovarian

| SMILES | TGI (ACHN renal) | TGI (COLO 205 colon) | TGI (DU-145 prostate) | TGI (HCT-116 colon) | TGI (HCT-15 colon) | TGI (M14 melanoma) | TGI (MDA-MB-435) | TGI (MOLT-4 leukemia) | TGI (NCI-H23 lung) | TGI (NCI-H460 lung) | TGI (OVCAR-4 ovarian) | TGI (SF-295 CNS) | TGI (SK-MEL-5 melanoma) | TGI (UACC-62 melanoma) | TGI (A549 NSCLC) | TGI (HT29 colon) | TGI (NCI-H226 lung) | TGI (OVCAR-3 ovarian) | TGI (OVCAR-8 ovarian) |
| --- | --- | --- | --- | --- | --- | --- | --- | --- | --- | --- | --- | --- | --- | --- | --- | --- | --- | --- | --- |
| CC1(O)Oc2ccc3ccccc3c2C=C1C(N)=O (stereo not given) | > 100 µM | > 100 µM | > 100 µM | > 100 µM | > 100 µM | > 100 µM | > 100 µM | > 100 µM | > 100 µM | > 100 µM | > 100 µM | > 100 µM | > 100 µM | > 100 µM |  |  |  |  |  |
| COc1cccc(C2c3cc4c(cc3OC(N3CCCCC3)C2C)OCO4)c1OC (stereo not given) | 35.1 µM | 29 µM | 25.5 µM | 12.1 µM | 26.3 µM | 47.1 µM | 33.8 µM | 30.4 µM | 71.3 µM | 27.9 µM |  | 22.5 µM | 21.5 µM | 33.6 µM | 22.3 µM | 19.8 µM | 34.8 µM | 20.7 µM | > 100 µM |
| CC(C)C1COC(c2ccc3ccccc3c2-c2c(O[Si](C)(C)C(C)(C)C)ccc3ccccc23)=N1 (stereo not given) | 33.2 µM | 33.6 µM |  |  | 46.7 µM | 29.2 µM |  | 32 µM | 30.7 µM | 37.4 µM | 36.1 µM | 32.1 µM | 31.8 µM | 30.9 µM | 31.7 µM | 29 µM | 26.4 µM | 31.5 µM | 35.3 µM |
| CN(C)c1nc(=NCc2cccnc2)ss1 |  | > 10 µM | > 10 µM |  | > 10 µM | > 10 µM | > 10 µM | > 10 µM | > 10 µM |  | > 10 µM | > 10 µM | > 10 µM | > 10 µM | > 10 µM | > 10 µM |  |  | > 10 µM |
| COC(=O)N/N=C(/Cc1occc(=O)c1O)C(=O)Nc1ccc([N+](=O)[O-])cc1[N+](=O)[O-] | > 100 µM | > 100 µM |  | > 100 µM | > 100 µM | > 100 µM |  | > 100 µM | > 100 µM | > 100 µM | > 100 µM | > 100 µM | > 100 µM | > 100 µM | > 100 µM | > 100 µM | > 100 µM |  | > 100 µM |
| COC1=CC(=O)C2C(C1=O)C(c1ccc(OC)c(OC)c1)[C@H]2C (stereo not given in full) | 33.4 µM | 36.9 µM |  | 31.9 µM | 34.5 µM | 34.9 µM |  | 31.3 µM | 42.9 µM | > 100 µM | 30.6 µM | > 100 µM | 61.4 µM | > 100 µM | > 100 µM | > 100 µM | > 100 µM | 40.1 µM | 42.5 µM |
| O=C1NC2C(CCO)CC=C[C@H]2c2cc3c(cc21)OCO3 (stereo not given in full) | > 100 µM | > 100 µM |  | > 100 µM | > 100 µM | > 100 µM |  | > 100 µM | > 100 µM | > 100 µM |  | > 100 µM |  | > 100 µM | > 100 µM | > 100 µM | > 100 µM | > 100 µM | > 100 µM |
